Experimental data: ChEMBL document CHEMBL1201862, “PubChem BioAssay data set” (2004)
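Grown in 96-well plates, cells were treated for 48 hours with each compound at five concentrations. Insufficient inhibition: endpoint recorded as highest concentration tested. GI50: concentration for 50% inhibition of growth.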 Calls of active or inactive are those of the source. No stated cut-off is given here; in the data, active = GI50 up to about 1.1 µM and inactive = higher.

Key:
Assay in all cases: NCI tumour cell line growth inhibition, 48 h
[1] = system: DMS-273
[2] = system: DLD-1
[3] = system: M19-MEL
[4] = system: KM-20L2
[5] = system: SNB-78
[6] = system: HOP-18
[7] = system: LXFL 529
[8] = system: XF498
[9] = system: RXF 631

How did the GI50 [1] turn out when `Nc1ccccc1SC(/C=C/NNC1=NN=C(c2ccccc2)C(c2ccccc2)N1)c1ccccc1` (stereo not given) was run?
The GI50 was 16.9 µM (inactive).

What about the GI50 [2] of the same compound?
The GI50 was 12.9 µM (inactive).

What about the GI50 [3] of the same compound?
Its GI50 is 11.4 µM (inactive).

What about the GI50 [4] of the same compound?
The GI50 was 21 µM (inactive).

And the GI50 [5]?
The GI50 was 18 µM (inactive).

For `O=[N+]([O-])c1cc(C2SCc3nc4ccccc4n32)ccc1Cl` (stereo not given), which GI50 [6] is on record?
Its GI50 is 76.7 µM (inactive).

And the GI50 [1]?
The GI50 was 24.2 µM (inactive).

And the GI50 [2]?
Its GI50 is 26.1 µM (inactive).

And the GI50 [3]?
Its GI50 is 22.2 µM (inactive).

And the GI50 [5]?
Its GI50 is 23.2 µM (inactive).

And the GI50 [7]?
The GI50 was 23.1 µM (inactive).

Which results are given for `CC1=C(C(=O)Nc2cc(=O)n(C)c(=O)n2C)C(c2ccc([N+](=O)[O-])cc2)C(C(=O)Nc2cc(=O)n(C)c(=O)n2C)=C(C)N1`?
GI50 [6]: 51.5 µM (inactive); GI50 [8]: 8.97 µM (inactive); GI50 [2]: 90.8 µM (inactive); GI50 [9]: > 100 µM (inactive); GI50 [3]: > 100 µM (inactive); GI50 [4]: > 100 µM (inactive); GI50 [5]: > 100 µM (inactive); GI50 [7]: 51.8 µM (inactive)

Which results are given for `CCOC(=O)C(C(C)=O)C1CC=CC1` (stereo not given)?
GI50 [8]: > 100 µM (inactive); GI50 [1]: > 100 µM (inactive); GI50 [2]: > 100 µM (inactive); GI50 [9]: > 100 µM (inactive); GI50 [4]: > 100 µM (inactive); GI50 [5]: > 100 µM (inactive); GI50 [7]: > 100 µM (inactive)

`CC(=O)c1cccc(NC(=O)C(=O)C(C(=O)NN)c2ccccc2)c1` (stereo not given) was tested. Which GI50 [6] did it give?
The GI50 was 16.5 µM (inactive).

What about the GI50 [8] of the same compound?
The GI50 was > 100 µM (inactive).

And the GI50 [1]?
Its GI50 is > 100 µM (inactive).

What about the GI50 [2] of the same compound?
Its GI50 is > 100 µM (inactive).

What about the GI50 [9] of the same compound?
Its GI50 is > 100 µM (inactive).

What about the GI50 [3] of the same compound?
Its GI50 is > 100 µM (inactive).

What about the GI50 [4] of the same compound?
The GI50 was > 100 µM (inactive).

What about the GI50 [7] of the same compound?
The GI50 was > 100 µM (inactive).

What does the source list for `CCn1cc(C(=O)O)c(=O)c2cc(F)c(N3CCNCC3)nc21` [ENOXACIN]?
GI50 [6]: > 100 µM (inactive); GI50 [1]: > 100 µM (inactive); GI50 [2]: > 100 µM (inactive); GI50 [9]: > 100 µM (inactive); GI50 [3]: 87.9 µM (inactive); GI50 [5]: > 100 µM (inactive); GI50 [7]: > 100 µM (inactive)

How did the GI50 [6] turn out when `CCN(CC)C(=O)c1c(N2CCOCC2)cc(N(CC)CC)oc1=O` was run?
The GI50 was > 100 µM (inactive).

What about the GI50 [8] of the same compound?
The GI50 was > 100 µM (inactive).

What about the GI50 [1] of the same compound?
Its GI50 is > 100 µM (inactive).

And the GI50 [2]?
Its GI50 is > 100 µM (inactive).

What about the GI50 [3] of the same compound?
The GI50 was > 100 µM (inactive).

What about the GI50 [4] of the same compound?
The GI50 was > 100 µM (inactive).

And the GI50 [5]?
Its GI50 is > 100 µM (inactive).

And the GI50 [7]?
The GI50 was > 100 µM (inactive).

`O=C1N(c2ccccc2)C2(O)C(=O)c3ccccc3C2(O)N1c1ccccc1` (stereo not given) was tested. Which GI50 [6] did it give?
The GI50 was > 100 µM (inactive).

And the GI50 [1]?
Its GI50 is > 100 µM (inactive).

And the GI50 [2]?
Its GI50 is > 100 µM (inactive).

What about the GI50 [3] of the same compound?
Its GI50 is > 100 µM (inactive).

And the GI50 [4]?
The GI50 was > 100 µM (inactive).

And the GI50 [5]?
The GI50 was > 100 µM (inactive).

What about the GI50 [7] of the same compound?
Its GI50 is > 100 µM (inactive).

With `COC(=O)NN=C1C(C)(C)C(=NNC(=O)OC)C1(C)C` as the compound, how does the GI50 [6] read?
The GI50 was > 100 µM (inactive).

And the GI50 [8]?
Its GI50 is > 96.6 µM (inactive).

And the GI50 [1]?
The GI50 was > 100 µM (inactive).

What about the GI50 [2] of the same compound?
The GI50 was > 61.9 µM (inactive).

What about the GI50 [9] of the same compound?
The GI50 was > 100 µM (inactive).

And the GI50 [3]?
Its GI50 is > 40.6 µM (inactive).

And the GI50 [4]?
Its GI50 is > 100 µM (inactive).

What about the GI50 [5] of the same compound?
The GI50 was > 100 µM (inactive).

What about the GI50 [7] of the same compound?
The GI50 was > 100 µM (inactive).

`Cc1cc(C)cc(-n2c3nc(=O)n(C)c(=O)c-3nc3ccccc32)c1` was tested. Which GI50 [6] did it give?
Its GI50 is > 100 µM (inactive).

What about the GI50 [8] of the same compound?
The GI50 was 36.3 µM (inactive).

What about the GI50 [1] of the same compound?
The GI50 was 16.7 µM (inactive).

What about the GI50 [9] of the same compound?
The GI50 was 22.5 µM (inactive).

And the GI50 [3]?
The GI50 was 6.07 µM (inactive).

And the GI50 [4]?
The GI50 was 19.4 µM (inactive).

And the GI50 [5]?
Its GI50 is 35.6 µM (inactive).

And the GI50 [7]?
The GI50 was 48.4 µM (inactive).

For `CC(=O)CC(=O)Nc1ccccc1C(F)(F)F`, which GI50 [8] is on record?
The GI50 was > 100 µM (inactive).

And the GI50 [2]?
Its GI50 is > 100 µM (inactive).

What about the GI50 [9] of the same compound?
Its GI50 is > 100 µM (inactive).

What about the GI50 [3] of the same compound?
Its GI50 is > 100 µM (inactive).

What about the GI50 [4] of the same compound?
The GI50 was > 100 µM (inactive).

And the GI50 [5]?
Its GI50 is > 100 µM (inactive).

And the GI50 [7]?
The GI50 was > 100 µM (inactive).

Which results are given for `COc1cc2c(c(OC(C)=O)c1OC(C)=O)-c1ccc(SC)c(=O)cc1C(NC(C)=O)CC2` (stereo not given)?
GI50 [6]: > 91 µM (inactive); GI50 [8]: 2.75 µM (inactive); GI50 [1]: 1.41 µM (inactive); GI50 [2]: 3.91 µM (inactive); GI50 [3]: 1.39 µM (inactive); GI50 [4]: 1.85 µM (inactive); GI50 [5]: 0.48 µM (active); GI50 [7]: 0.955 µM (active)

Which results are given for `C/C(=N\NC(=S)N(C)C)c1ncc[nH]1`?
GI50 [6]: 5.37 µM (inactive); GI50 [8]: 4.73 µM (inactive); GI50 [2]: 2.9 µM (inactive); GI50 [3]: 5.6 µM (inactive); GI50 [4]: 3.57 µM (inactive); GI50 [7]: 2.98 µM (inactive)

`CS(=O)(=O)OCCCCOS(C)(=O)=O` [BUSULFAN] was tested. Which GI50 [6] did it give?
Its GI50 is > 200 µM (inactive).

And the GI50 [1]?
Its GI50 is 191 µM (inactive).

What about the GI50 [2] of the same compound?
The GI50 was > 236 µM (inactive).

What about the GI50 [3] of the same compound?
Its GI50 is 226 µM (inactive).

And the GI50 [4]?
The GI50 was > 234 µM (inactive).

And the GI50 [5]?
Its GI50 is 212 µM (inactive).

What about the GI50 [7] of the same compound?
Its GI50 is > 250 µM (inactive).

For `COc1ccc2c(c1)[C@@H](NC(C)=O)CCc1cc(OC)c(OC)c(OC)c1-2`, which GI50 [6] is on record?
Its GI50 is > 100 µM (inactive).

And the GI50 [8]?
The GI50 was 0.0137 µM (active).

And the GI50 [1]?
Its GI50 is < 0.01 µM (active).

And the GI50 [2]?
The GI50 was < 0.0138 µM (active).

What about the GI50 [3] of the same compound?
Its GI50 is < 0.0154 µM (active).

What about the GI50 [4] of the same compound?
Its GI50 is 0.0117 µM (active).

What about the GI50 [5] of the same compound?
The GI50 was 0.0107 µM (active).

What about the GI50 [7] of the same compound?
Its GI50 is < 0.0137 µM (active).

For `Cc1cc(NS(=O)(=O)c2ccc(NC(=O)c3cccc4c(Nc5ccc(S(=O)(=O)N=C(N)N)cc5)c5ccccc5nc34)cc2)no1`, which GI50 [1] is on record?
The GI50 was > 100 µM (inactive).

And the GI50 [2]?
The GI50 was > 100 µM (inactive).

And the GI50 [9]?
The GI50 was > 100 µM (inactive).

And the GI50 [4]?
Its GI50 is > 100 µM (inactive).

And the GI50 [5]?
The GI50 was > 100 µM (inactive).

And the GI50 [7]?
Its GI50 is > 100 µM (inactive).

For `CC1(C)CCC[C@@]2(C)C1C[C@H](O)[C@@]1(C)O[C@@](C)([C@H](O)CO)CCC21` (stereo not given in full), which GI50 [6] is on record?
Its GI50 is 26.1 µM (inactive).

What about the GI50 [8] of the same compound?
The GI50 was 38.7 µM (inactive).

What about the GI50 [1] of the same compound?
Its GI50 is 44.2 µM (inactive).

What about the GI50 [9] of the same compound?
Its GI50 is 86.9 µM (inactive).

What about the GI50 [3] of the same compound?
The GI50 was 40.8 µM (inactive).

And the GI50 [4]?
The GI50 was 40.5 µM (inactive).

What about the GI50 [5] of the same compound?
Its GI50 is 40.3 µM (inactive).

And the GI50 [7]?
The GI50 was 43.2 µM (inactive).

For `CCCc1c[nH]c(-c2ccc(-c3cc(CCC)c(C=O)[nH]3)s2)c1`, which GI50 [6] is on record?
The GI50 was 27.7 µM (inactive).

What about the GI50 [8] of the same compound?
Its GI50 is 18.7 µM (inactive).

What about the GI50 [1] of the same compound?
The GI50 was 14.9 µM (inactive).

What about the GI50 [2] of the same compound?
The GI50 was 15 µM (inactive).

What about the GI50 [3] of the same compound?
Its GI50 is 7.93 µM (inactive).

What about the GI50 [5] of the same compound?
The GI50 was 20.1 µM (inactive).

What about the GI50 [7] of the same compound?
The GI50 was 18.8 µM (inactive).
